Experimental findings from PubChem BioAssay AID328 (DTP/NCI, 2004) are described below.

The subject of this experiment is BDF1 mice, P388 leukemia ip, median survival T/C. Kind of experiment: NCI In Vivo Anticancer Drug Screen. Data for tumor model P388 Leukemia (intraperitoneal) in B6D2F1 (BDF1) mice. Conditions: endpoint: median survival time, higher = longer survival. In short, it runs like this:
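Antitumour effect was judged in vivo: survival in drug-treated mice, normalised to that of vehicle-dosed controls, gives the reported T/C.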

[1] abbreviates: dose: 100.0 mg/kg/injection, schedule: Q04DX003 (ip), vehicle: Klucel (hydroxypropylcellulose) (HPC).
Where [2] appears, read: dose: 200.0 mg/kg/injection, schedule: Q04DX003 (ip), vehicle: Klucel (hydroxypropylcellulose) (HPC).
Setting [3] is: dose: 400.0 mg/kg/injection, schedule: Q04DX003 (ip), vehicle: Klucel (hydroxypropylcellulose) (HPC).
Setting [4] is: dose: 50.0 mg/kg/injection, schedule: Q01DX009 (ip), vehicle: saline with Tween-80.
Where [5] appears, read: dose: 50.0 mg/kg/injection, schedule: Q04DX003 (ip), vehicle: saline with Tween-80.
Where [6] appears, read: dose: 100.0 mg/kg/injection, schedule: Q01DX009 (ip), vehicle: saline with Tween-80.
[7] abbreviates: dose: 100.0 mg/kg/injection, schedule: Q04DX003 (ip), vehicle: saline with Tween-80.
Setting [8] is: dose: 200.0 mg/kg/injection, schedule: Q01DX009 (ip), vehicle: saline with Tween-80.
The mark [9] stands for this setting: dose: 200.0 mg/kg/injection, schedule: Q04DX003 (ip), vehicle: saline with Tween-80.

Several values for one entry are separate records, joined by “and”; a condition that tells them apart may be missing. Identical values can stand only once. Inconclusive results and toxic doses are left out. Positions of bridges follow the written chain, without caps; N, C: chain ends. Non-standard residues stand in square brackets, D forms with d. Residues, ends and D or L forms follow the SMILES beside them. NMeV = CN[CH](C(=O)O)C(C)C; Sar = CNCC(=O)O

On to `COc1cc(/C=N/NC(=O)c2ccncc2)cc(OC)c1OC`, for which the T/C runs as follows: under setting [1], 104 % of control; (dose: 200.0 mg/kg/injection, schedule: Q01DX009 (ip), vehicle: Klucel (hydroxypropylcellulose) (HPC)) 122 % of control; under setting [2], 109 % of control; (dose: 400.0 mg/kg/injection, schedule: Q01DX009 (ip), vehicle: Klucel (hydroxypropylcellulose) (HPC)) 122 % of control; under setting [3], 100 % of control.
As for `CN(C)C`, the T/C (dose: 50.0 mg/kg/injection, schedule: Q04DX003 (ip), vehicle: saline) was 100 % of control; the T/C (dose: 100.0 mg/kg/injection, schedule: Q04DX003 (ip), vehicle: saline) is 100 % of control; the T/C (dose: 200.0 mg/kg/injection, schedule: Q04DX003 (ip), vehicle: saline) is 109 % of control.
As for `CCC(CC)C(=O)NC`, the T/C is 104 % of control (dose: 50.0 mg/kg/injection, schedule: Q01DX005 (ip), vehicle: saline with Tween-80); 104 % of control (dose: 100.0 mg/kg/injection, schedule: Q01DX005 (ip), vehicle: saline with Tween-80); 95 % of control (dose: 200.0 mg/kg/injection, schedule: Q01DX005 (ip), vehicle: saline with Tween-80).
In the case of `S=C(N/N=C/c1ccc(-c2ccccc2)cc1)Nc1ccccc1`, the T/C by setting is: under setting [4], 91 % of control; under setting [5], 95 % of control; under setting [6], 91 % of control; under setting [7], 91 % of control; under setting [8], 91 % of control; under setting [9], 91 % of control.
As for `c1ccc(-c2c(-c3ccccc3)c(-c3ccccc3)c(-c3ccccc3)c(-c3ccccc3)c2-c2ccccc2)cc1`, the T/C was 93 % of control (dose: 6.25 mg/kg/injection, schedule: Q01DX009 (ip), vehicle: water); 115 % of control (dose: 12.5 mg/kg/injection, schedule: Q01DX009 (ip), vehicle: water); 106 % of control (dose: 12.5 mg/kg/injection, schedule: Q04DX003 (ip), vehicle: water); 106 % of control and 108 % of control (dose: 25.0 mg/kg/injection, schedule: Q04DX003 (ip), vehicle: water); 90 % of control (dose: 50.0 mg/kg/injection, schedule: Q01DX009 (ip), vehicle: water); 100 % of control and 109 % of control (dose: 50.0 mg/kg/injection, schedule: Q04DX003 (ip), vehicle: water). Further, the T/C was 89 % of control (dose: 100.0 mg/kg/injection, schedule: Q01DX009 (ip), vehicle: water); 88 % of control and 97 % of control (dose: 100.0 mg/kg/injection, schedule: Q04DX003 (ip), vehicle: water).
Consider `CC(C)C1NC(=O)C(N)C(C)OC(=O)C(C(C)C)N(C)C(=O)CN(C)C(=O)C2CCCN2C1=O` (configuration not stated) (tested in a mixture with another compound) (H-TVP[Sar][NMeV]; ester 1-C; configuration not given here), for which the T/C by setting is: (dose: 0.05 mg/kg/injection, schedule: Q01DX009 (ip), vehicle: saline + alcohol) 201 % of control; (dose: 0.1 mg/kg/injection, schedule: Q01DX009 (ip), vehicle: saline + alcohol) 260 % of control; (dose: 0.2 mg/kg/injection, schedule: Q01DX009 (ip), vehicle: saline + alcohol) 531 % of control; (dose: 0.3 mg/kg/injection, schedule: Q04DX003 (ip), vehicle: saline + alcohol) 239 % of control; (dose: 0.4 mg/kg/injection, schedule: Q01DX009 (ip), vehicle: saline + alcohol) 96 % of control; (dose: 0.6 mg/kg/injection, schedule: Q04DX003 (ip), vehicle: saline + alcohol) 281 % of control and 187 % of control. Also, the T/C (dose: 1.2 mg/kg/injection, schedule: Q04DX003 (ip), vehicle: saline + alcohol) is 107 % of control.
In the case of `CCCCNC1(C#N)CCN(Cc2ccccc2)CC1`, the T/C was 104 % of control (dose: 6.0 mg/kg/injection, schedule: Q04DX003 (ip), vehicle: Klucel (hydroxypropylcellulose) (HPC)); 100 % of control (dose: 12.0 mg/kg/injection, schedule: Q04DX003 (ip), vehicle: Klucel (hydroxypropylcellulose) (HPC)); 100 % of control (dose: 12.5 mg/kg/injection, schedule: Q01DX009 (ip), vehicle: Klucel (hydroxypropylcellulose) (HPC)); 91 % of control (dose: 25.0 mg/kg/injection, schedule: Q01DX009 (ip), vehicle: Klucel (hydroxypropylcellulose) (HPC)); 96 % of control and 112 % of control (dose: 25.0 mg/kg/injection, schedule: Q04DX003 (ip), vehicle: Klucel (hydroxypropylcellulose) (HPC)).
Take `CCC[CH2][Sn]([CH2]CCC)([O]C(C)=O)[O]C(C)=O`: the T/C was 114 % of control (dose: 3.12 mg/kg/injection, schedule: Q01DX009 (ip), vehicle: saline with Tween-80); 154 % of control (dose: 6.12 mg/kg/injection, schedule: Q01DX009 (ip), vehicle: saline); 151 % of control (dose: 6.25 mg/kg/injection, schedule: Q01DX009 (ip), vehicle: saline with Tween-80); 86 % of control (dose: 12.5 mg/kg/injection, schedule: Q01DX009 (ip), vehicle: saline with Tween-80); 156 % of control (dose: 12.5 mg/kg/injection, schedule: Q01DX009 (ip), vehicle: saline).
With `CCCCCCC(N)C(C)=O` (configuration not stated), the T/C reads like this: (dose: 50.0 mg/kg/injection, schedule: Q01DX009 (ip), vehicle: saline) 93 % of control; (dose: 100.0 mg/kg/injection, schedule: Q01DX009 (ip), vehicle: saline) 95 % of control.
As for `COc1ccc(C(=O)/C=C/c2ccc(OCc3ccccc3)cc2)cc1`, the T/C was 100 % of control under setting [4], 91 % of control under setting [6] and 96 % of control under setting [8].
For `O=C(Nc1ccccc1)Oc1ccc(Cl)cc1`, the T/C was 104 % of control under setting [1], 95 % of control under setting [2] and 109 % of control under setting [3].
For the compound `COc1cc(OC)c(OC)cc1/C=N/Nc1ccc(C(=O)O)cc1`, the T/C was 105 % of control under setting [7]; 100 % of control under setting [9]; 110 % of control (dose: 400.0 mg/kg/injection, schedule: Q04DX003 (ip), vehicle: saline with Tween-80).
As to `Cc1ccc(NC(=O)C2CCC(C)(C(=O)O)C2(C)C)cc1` (configuration not stated), the T/C is 109 % of control under setting [5], 90 % of control under setting [7] and 104 % of control under setting [9].
Consider `O=[n+]1c2ccccc2n([O-])c2ccccc21.[Cl][Cu][Cl]`, for which the T/C was 101 % of control (dose: 6.25 mg/kg/injection, schedule: Q04DX003 (ip), vehicle: saline with Tween-80) and 116 % of control (dose: 12.5 mg/kg/injection, schedule: Q04DX003 (ip), vehicle: saline with Tween-80).
`CC1OC(OC2CCCc3ccccc32)CC(N)C1O` (configuration not stated): the T/C (dose: 0.25 mg/kg/injection, schedule: Q01DX009 (ip), vehicle: water) is 91 % of control and 94 % of control; the T/C (dose: 0.5 mg/kg/injection, schedule: Q01DX009 (ip), vehicle: water) was 101 % of control and 115 % of control and 103 % of control; the T/C (dose: 1.0 mg/kg/injection, schedule: Q01DX009 (ip), vehicle: water) is 110 % of control [middle of 4 runs]; the T/C (dose: 2.0 mg/kg/injection, schedule: Q01DX009 (ip), vehicle: water) is 101 % of control and 102 % of control and 105 % of control; the T/C (dose: 4.0 mg/kg/injection, schedule: Q01DX009 (ip), vehicle: water) is 109 % of control [middle of 5 runs]; the T/C (dose: 8.0 mg/kg/injection, schedule: Q01DX009 (ip), vehicle: water) is 106 % of control and 111 % of control. Further, the T/C is 98 % of control and 108 % of control (dose: 16.0 mg/kg/injection, schedule: Q01DX009 (ip), vehicle: water); 121 % of control (dose: 32.0 mg/kg/injection, schedule: Q01DX009 (ip), vehicle: water).
As to `O=C(CBr)NCC1OC(n2cnc3c(=O)[nH]cnc32)C(O)C1O` (configuration not stated), the T/C by setting is: (dose: 50.0 mg/kg/injection, schedule: Q01DX001 (ip), vehicle: Klucel (hydroxypropylcellulose) (HPC)) 109 % of control; (dose: 100.0 mg/kg/injection, schedule: Q01DX001 (ip), vehicle: Klucel (hydroxypropylcellulose) (HPC)) 101 % of control; (dose: 200.0 mg/kg/injection, schedule: Q01DX001 (ip), vehicle: Klucel (hydroxypropylcellulose) (HPC)) 106 % of control.
As for `CC1CC(C)(C)[N+](C)=C(CC(O)(c2ccccc2)c2ccccc2)O1` (configuration not stated), the T/C was 109 % of control (dose: 6.25 mg/kg/injection, schedule: Q04DX003 (ip), vehicle: saline sonified); 90 % of control (dose: 12.5 mg/kg/injection, schedule: Q04DX003 (ip), vehicle: saline sonified); 90 % of control (dose: 25.0 mg/kg/injection, schedule: Q04DX003 (ip), vehicle: saline sonified).
